Laboratory results taken from patent US9340590B2 (priority 2011, dated 2016).
Positions of bridges follow the written chain, without caps; N, C: chain ends. Non-standard residues stand in square brackets, D forms with d. Residues, ends and D or L forms follow the SMILES beside them. *: point of attachment. Phe(4-guanidino) = N=C(N)Nc1ccc(C[C@H](N)C(=O)O)cc1; Arg(Me2s) = CN=C(NC)NCCC[C@H](N)C(=O)O; Pent4ynoyl = C#CCCC(=O)*; Abu = CC[C@H](N)C(=O)O

Experiments:
[1] = molecular target: hNav1.5 (Homo sapiens, UniProt Q14524); assay: cell-based
Sequence of hNav1.5 (Q14524 whole entry, looked up): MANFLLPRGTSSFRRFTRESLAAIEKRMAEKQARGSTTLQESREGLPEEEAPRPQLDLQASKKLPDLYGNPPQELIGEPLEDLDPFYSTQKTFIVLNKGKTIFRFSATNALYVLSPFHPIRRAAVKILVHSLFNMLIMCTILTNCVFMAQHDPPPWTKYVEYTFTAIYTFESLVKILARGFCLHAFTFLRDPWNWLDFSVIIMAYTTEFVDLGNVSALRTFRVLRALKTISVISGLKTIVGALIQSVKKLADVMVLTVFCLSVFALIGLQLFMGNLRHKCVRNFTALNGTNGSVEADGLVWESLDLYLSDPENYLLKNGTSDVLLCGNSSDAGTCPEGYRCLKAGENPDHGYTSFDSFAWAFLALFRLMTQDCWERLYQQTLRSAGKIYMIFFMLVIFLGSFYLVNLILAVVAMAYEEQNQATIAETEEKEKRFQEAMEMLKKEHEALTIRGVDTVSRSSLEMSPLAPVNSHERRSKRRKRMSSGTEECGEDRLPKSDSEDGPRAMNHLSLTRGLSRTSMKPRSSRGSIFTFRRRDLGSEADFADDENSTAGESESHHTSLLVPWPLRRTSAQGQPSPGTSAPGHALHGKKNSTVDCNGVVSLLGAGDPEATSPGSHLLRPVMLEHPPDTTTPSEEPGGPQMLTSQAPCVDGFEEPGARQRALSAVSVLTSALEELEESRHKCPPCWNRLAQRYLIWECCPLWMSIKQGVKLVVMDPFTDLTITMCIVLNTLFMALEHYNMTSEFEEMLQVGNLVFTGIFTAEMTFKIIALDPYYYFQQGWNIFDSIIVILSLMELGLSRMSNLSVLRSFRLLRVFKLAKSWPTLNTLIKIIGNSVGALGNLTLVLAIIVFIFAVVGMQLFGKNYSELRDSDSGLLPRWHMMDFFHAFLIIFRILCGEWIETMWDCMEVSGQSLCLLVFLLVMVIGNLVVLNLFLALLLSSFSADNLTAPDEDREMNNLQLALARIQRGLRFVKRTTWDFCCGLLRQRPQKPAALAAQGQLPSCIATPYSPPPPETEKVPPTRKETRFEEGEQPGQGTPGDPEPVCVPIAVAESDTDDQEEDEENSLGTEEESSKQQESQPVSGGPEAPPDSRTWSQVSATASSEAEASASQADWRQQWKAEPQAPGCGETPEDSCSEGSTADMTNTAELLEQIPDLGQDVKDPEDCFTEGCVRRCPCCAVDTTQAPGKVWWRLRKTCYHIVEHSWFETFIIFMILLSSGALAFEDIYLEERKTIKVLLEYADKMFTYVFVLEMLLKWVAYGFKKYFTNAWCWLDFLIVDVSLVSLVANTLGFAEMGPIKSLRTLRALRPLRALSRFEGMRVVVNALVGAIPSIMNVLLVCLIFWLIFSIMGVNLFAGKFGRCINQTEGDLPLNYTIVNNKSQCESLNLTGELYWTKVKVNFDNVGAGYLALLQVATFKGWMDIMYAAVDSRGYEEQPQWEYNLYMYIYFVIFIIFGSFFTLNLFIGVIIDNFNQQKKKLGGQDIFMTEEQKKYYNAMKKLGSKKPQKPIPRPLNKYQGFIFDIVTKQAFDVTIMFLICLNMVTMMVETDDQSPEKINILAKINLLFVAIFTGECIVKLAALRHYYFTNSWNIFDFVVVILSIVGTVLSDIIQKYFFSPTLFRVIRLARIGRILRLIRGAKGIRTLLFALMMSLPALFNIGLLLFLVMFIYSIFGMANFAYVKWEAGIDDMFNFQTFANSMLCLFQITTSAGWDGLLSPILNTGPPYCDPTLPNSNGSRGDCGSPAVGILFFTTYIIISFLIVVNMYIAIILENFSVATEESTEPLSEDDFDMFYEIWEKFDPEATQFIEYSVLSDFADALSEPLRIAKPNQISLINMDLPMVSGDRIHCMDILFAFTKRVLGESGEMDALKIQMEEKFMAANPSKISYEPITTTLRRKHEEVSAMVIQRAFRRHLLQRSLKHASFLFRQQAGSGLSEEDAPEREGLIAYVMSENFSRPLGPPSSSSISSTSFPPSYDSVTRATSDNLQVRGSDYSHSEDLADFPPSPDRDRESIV

[2] = molecular target: hNav1.7 (Homo sapiens, UniProt Q15858); assay: cell-based; settings: Nav1.7 Use IC50
Sequence of hNav1.7 (Q15858 whole entry, looked up): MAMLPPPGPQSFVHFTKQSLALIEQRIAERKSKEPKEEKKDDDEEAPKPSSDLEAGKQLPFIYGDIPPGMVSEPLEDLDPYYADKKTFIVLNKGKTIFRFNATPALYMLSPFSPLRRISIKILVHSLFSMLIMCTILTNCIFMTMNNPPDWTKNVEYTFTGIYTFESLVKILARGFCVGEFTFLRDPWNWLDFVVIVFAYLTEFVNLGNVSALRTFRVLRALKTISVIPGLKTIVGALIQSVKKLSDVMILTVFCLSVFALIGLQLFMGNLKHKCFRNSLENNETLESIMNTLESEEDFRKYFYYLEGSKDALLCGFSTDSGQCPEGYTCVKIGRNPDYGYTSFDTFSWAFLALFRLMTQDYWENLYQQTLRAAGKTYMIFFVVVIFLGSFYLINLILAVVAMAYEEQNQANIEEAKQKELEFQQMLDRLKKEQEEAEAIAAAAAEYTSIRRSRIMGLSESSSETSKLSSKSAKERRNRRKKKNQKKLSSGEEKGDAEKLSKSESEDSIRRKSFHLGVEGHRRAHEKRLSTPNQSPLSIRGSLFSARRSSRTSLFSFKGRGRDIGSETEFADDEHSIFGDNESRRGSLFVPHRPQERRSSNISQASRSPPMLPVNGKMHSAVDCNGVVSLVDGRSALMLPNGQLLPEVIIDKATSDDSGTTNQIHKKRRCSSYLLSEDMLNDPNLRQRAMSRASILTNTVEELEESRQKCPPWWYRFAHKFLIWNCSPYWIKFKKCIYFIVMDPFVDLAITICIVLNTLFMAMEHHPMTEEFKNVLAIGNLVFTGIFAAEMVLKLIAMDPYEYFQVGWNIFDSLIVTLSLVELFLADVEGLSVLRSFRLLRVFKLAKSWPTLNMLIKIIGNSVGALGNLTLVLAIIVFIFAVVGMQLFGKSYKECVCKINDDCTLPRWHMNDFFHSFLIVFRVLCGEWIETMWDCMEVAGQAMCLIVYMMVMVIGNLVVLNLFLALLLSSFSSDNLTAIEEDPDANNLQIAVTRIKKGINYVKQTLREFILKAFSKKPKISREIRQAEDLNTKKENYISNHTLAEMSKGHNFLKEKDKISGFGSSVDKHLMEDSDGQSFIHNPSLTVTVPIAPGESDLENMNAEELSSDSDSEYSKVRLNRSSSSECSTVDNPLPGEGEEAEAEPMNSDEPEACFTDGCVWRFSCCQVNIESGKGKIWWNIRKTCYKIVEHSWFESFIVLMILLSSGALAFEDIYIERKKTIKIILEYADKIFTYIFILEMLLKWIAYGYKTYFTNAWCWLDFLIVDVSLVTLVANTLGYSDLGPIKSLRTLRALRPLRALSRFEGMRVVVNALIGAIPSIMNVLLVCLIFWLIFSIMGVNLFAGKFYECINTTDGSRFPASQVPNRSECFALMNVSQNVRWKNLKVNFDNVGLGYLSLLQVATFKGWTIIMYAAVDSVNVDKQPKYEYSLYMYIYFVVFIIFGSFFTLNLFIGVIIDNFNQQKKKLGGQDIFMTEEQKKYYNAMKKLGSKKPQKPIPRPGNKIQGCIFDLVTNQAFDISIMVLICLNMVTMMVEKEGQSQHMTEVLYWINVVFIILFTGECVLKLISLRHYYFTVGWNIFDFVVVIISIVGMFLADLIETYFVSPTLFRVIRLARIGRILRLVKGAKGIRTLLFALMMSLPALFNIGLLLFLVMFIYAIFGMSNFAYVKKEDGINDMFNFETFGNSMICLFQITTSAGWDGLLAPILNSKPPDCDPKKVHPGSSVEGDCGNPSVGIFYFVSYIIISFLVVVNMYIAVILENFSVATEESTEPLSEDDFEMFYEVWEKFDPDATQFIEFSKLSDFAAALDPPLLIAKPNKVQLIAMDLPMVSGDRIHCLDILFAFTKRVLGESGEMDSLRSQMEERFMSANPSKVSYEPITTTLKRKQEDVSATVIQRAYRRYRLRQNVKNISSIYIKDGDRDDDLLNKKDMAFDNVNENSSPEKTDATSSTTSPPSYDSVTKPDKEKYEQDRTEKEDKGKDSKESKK

| Compound | IC50 [1] [nM] | IC50 [2] [nM] |
| --- | --- | --- |
| CC[C@H](C)[C@@H]1NC(=O)[C@@H]2CSSC[C@@H]3NC(=O)[C@H](C(C)C)NC(=O)[C@H](CC(C)C)NC(=O)[C@H](CC(N)=O)NC(=O)[C@@H]4CCCN4C(=O)[C@H](CCCNC(=N)N)NC(=O)[C@H](CSSC[C@H](NC(=O)[C@@H](N)CC(=O)O)C(=O)N[C@@H](CC(C)C)C(=O)NCC(=O)N(C)[C@@H](Cc4ccccc4)C(=O)N[C@@H](CCSC)C(=O)N[C@@H](CCCNC(=N)N)C(=O)N[C@@H](CCCCN)C(=O)N2)NC(=O)[C@H](CSSC[C@@H](C(=O)N[C@@H](CCCCN)C(=O)N[C@@H](Cc2ccc(O)cc2)C(=O)N[C@H](C(=O)N[C@@H](Cc2ccccc2)C(N)=O)C(C)C)NC(=O)[C@H](Cc2c[nH]c4ccccc24)NC(=O)[C@H](CCCCN)NC(=O)[C@H](Cc2c[nH]cn2)NC(=O)[C@H]([C@@H](C)O)NC(=O)[C@H](CCCNC(=N)N)NC(=O)[C@H](CO)NC3=O)NC(=O)[C@H](CCCCN)NC(=O)[C@H](CC(=O)O)NC(=O)[C@H](CC(N)=O)NC(=O)[C@H](CC(=O)O)NC(=O)[C@@H]2CCCN2C1=O [[NMePhe5]GpTx-1(1-34)] | > 10000 | 18 |
| CC[C@H](C)[C@@H]1NC(=O)[C@@H]2CSSC[C@@H]3NC(=O)[C@H](C)NC(=O)[C@H](CC(C)C)NC(=O)[C@H](CC(N)=O)NC(=O)[C@@H]4CCCN4C(=O)[C@H](CCCNC(=N)N)NC(=O)[C@H](CSSC[C@H](NC(=O)[C@@H](N)CC(=O)O)C(=O)N[C@@H](CC(C)C)C(=O)NCC(=O)N[C@@H](Cc4ccccc4)C(=O)N[C@@H](CCSC)C(=O)N[C@@H](CCCNC(=N)N)C(=O)N[C@@H](CCCCN)C(=O)N2)NC(=O)[C@H](CSSC[C@@H](C(=O)N[C@@H](CCCCN)C(=O)N[C@@H](Cc2ccc(O)cc2)C(=O)N[C@H](C(=O)N[C@@H](Cc2ccccc2)C(N)=O)C(C)C)NC(=O)[C@H](Cc2c[nH]c4ccccc24)NC(=O)[C@H](CCCCN)NC(=O)[C@H](Cc2cnc[nH]2)NC(=O)[C@H]([C@@H](C)O)NC(=O)[C@H](CCCNC(=N)N)NC(=O)[C@H](CO)NC3=O)NC(=O)[C@H](CCCCN)NC(=O)[C@H](CC(=O)O)NC(=O)[C@H](CC(N)=O)NC(=O)[C@H](CC(=O)O)NC(=O)[C@@H]2CCCN2C1=O [[Ala22]GpTx-1(1-34)] (H-DCLGFMRKCIPDNDKCCRPNLACSRTHKWCKYVF-NH2; disulfide 2-17, 9-23, 16-30) | 6200 | 6 |
| CC[C@H](C)[C@@H]1NC(=O)[C@@H]2CSSC[C@@H]3NC(=O)[C@H](C(C)C)NC(=O)[C@H](CC(C)C)NC(=O)[C@H](CC(N)=O)NC(=O)[C@@H]4CCCN4C(=O)[C@H](CCCNC(=N)N)NC(=O)[C@H](CSSC[C@H](NC(=O)[C@@H](N)CC(=O)O)C(=O)N[C@@H](CC(C)C)C(=O)NCC(=O)N[C@@H](C(C)C)C(=O)N[C@@H](CCSC)C(=O)N[C@@H](CCCNC(=N)N)C(=O)N[C@@H](CCCCN)C(=O)N2)NC(=O)[C@H](CSSC[C@@H](C(=O)N[C@@H](CCCCN)C(=O)N[C@@H](Cc2ccc(O)cc2)C(=O)N[C@H](C(=O)N[C@@H](Cc2ccccc2)C(N)=O)C(C)C)NC(=O)[C@H](Cc2c[nH]c4ccccc24)NC(=O)[C@H](CCC(=O)O)NC(=O)[C@H](Cc2c[nH]cn2)NC(=O)[C@H]([C@@H](C)O)NC(=O)[C@H](CCCNC(=N)N)NC(=O)[C@H](CO)NC3=O)NC(=O)[C@H](CCCCN)NC(=O)[C@H](CC(=O)O)NC(=O)[C@H](CC(N)=O)NC(=O)[C@H](CC(=O)O)NC(=O)[C@@H]2CCCN2C1=O [[Val5;Glu28]GpTx-1(1-34)] (H-DCLGVMRKCIPDNDKCCRPNLVCSRTHEWCKYVF-NH2; disulfide 2-17, 9-23, 16-30) | > 10000 | 29 |
| CC[C@H](C)[C@@H]1NC(=O)[C@@H]2CSSC[C@@H]3NC(=O)[C@H](C(C)C)NC(=O)[C@H](CC(C)C)NC(=O)[C@H](CC(N)=O)NC(=O)[C@@H]4CCCN4C(=O)[C@H](CCCNC(=N)N)NC(=O)[C@H](CSSC[C@H](NC(=O)[C@@H](N)CC(=O)O)C(=O)N[C@@H](CC(C)C)C(=O)NCC(=O)N[C@@H](C)C(=O)N[C@@H](CCSC)C(=O)N[C@@H](CCCNC(=N)N)C(=O)N[C@@H](CCCCN)C(=O)N2)NC(=O)[C@H](CSSC[C@@H](C(=O)N[C@@H](CCCCN)C(=O)N[C@@H](Cc2ccc(O)cc2)C(=O)N[C@H](C(=O)N[C@@H](Cc2ccccc2)C(N)=O)C(C)C)NC(=O)[C@H](Cc2c[nH]c4ccccc24)NC(=O)[C@H](CCCNC(=NC)NC)NC(=O)[C@H](Cc2c[nH]cn2)NC(=O)[C@H]([C@@H](C)O)NC(=O)[C@H](CCCNC(=N)N)NC(=O)[C@H](CO)NC3=O)NC(=O)[C@H](CCCCN)NC(=O)[C@H](CC(=O)O)NC(=O)[C@H](CC(N)=O)NC(=O)[C@H](CC(=O)O)NC(=O)[C@@H]2CCCN2C1=O [[Ala5;SDMA28]GpTx-1(1-34)] (H-DCLGAMRKCIPDNDKCCRPNLVCSRTH[Arg(Me2s)]WCKYVF-NH2; disulfide 2-17, 9-23, 16-30) | > 10000 | 41 |
| CC[C@H](C)[C@@H]1NC(=O)[C@@H]2CSSC[C@@H]3NC(=O)[C@H](C(C)C)NC(=O)[C@H](CC(C)C)NC(=O)[C@H](CC(N)=O)NC(=O)[C@@H]4CCCN4C(=O)[C@H](CCCNC(=N)N)NC(=O)[C@H](CSSC[C@H](NC(=O)[C@@H](N)CC(=O)O)C(=O)N[C@@H](CC(C)C)C(=O)NCC(=O)N(C)[C@@H](C(C)C)C(=O)N[C@@H](CC(C)C)C(=O)N[C@@H](CCCNC(=N)N)C(=O)N[C@@H](CCCCN)C(=O)N2)NC(=O)[C@H](CSSC[C@@H](C(=O)N[C@@H](CCCCN)C(=O)N[C@@H](Cc2ccc(O)cc2)C(=O)N[C@H](C(=O)N[C@@H](Cc2ccccc2)C(N)=O)C(C)C)NC(=O)[C@H](Cc2c[nH]c4ccccc24)NC(=O)[C@H](CCCCN)NC(=O)[C@H](Cc2c[nH]cn2)NC(=O)[C@H]([C@@H](C)O)NC(=O)[C@H](CCCNC(=N)N)NC(=O)[C@H](CO)NC3=O)NC(=O)[C@H](CCCCN)NC(=O)[C@H](CC(=O)O)NC(=O)[C@H](CC(N)=O)NC(=O)[C@H](CC(=O)O)NC(=O)[C@@H]2CCCN2C1=O [[NMeVal5;Leu6]GpTx-1(1-34)] | > 10000 | 50 |
| CC[C@H](C)[C@@H]1NC(=O)[C@@H]2CSSC[C@@H]3NC(=O)[C@H](C(C)C)NC(=O)[C@H](CC(C)C)NC(=O)[C@H](CC(N)=O)NC(=O)[C@@H]4CCCN4C(=O)[C@H](CCCNC(=N)N)NC(=O)[C@H](CSSC[C@H](NC(=O)[C@@H](N)CC(=O)O)C(=O)N[C@@H](CC(C)C)C(=O)NCC(=O)N[C@@H](Cc4ccccc4)C(=O)N[C@@H](CCSC)C(=O)N[C@@H](CCCNC(=N)N)C(=O)N[C@@H](CCCCN)C(=O)N2)NC(=O)[C@H](CSSC[C@@H](C(=O)N[C@@H](CCCCN)C(=O)N[C@@H](Cc2ccc(O)cc2)C(=O)N[C@H](C(=O)N[C@@H](Cc2ccccc2)C(N)=O)C(C)C)NC(=O)[C@H](Cc2c[nH]c4ccccc24)NC(=O)[C@H](CCCCN)NC(=O)[C@H](Cc2c[nH]cn2)NC(=O)[C@H]([C@@H](C)O)NC(=O)[C@H](CCC(=O)O)NC(=O)[C@H](CO)NC3=O)NC(=O)[C@H](CCCCN)NC(=O)[C@H](CC(=O)O)NC(=O)[C@H](CC(N)=O)NC(=O)[C@H](CC(=O)O)NC(=O)[C@@H]2CCCN2C1=O [[Glu25]GpTx-1(1-34)] (H-DCLGFMRKCIPDNDKCCRPNLVCSETHKWCKYVF-NH2; disulfide 2-17, 9-23, 16-30) | > 10000 | 28 |
| C#CCCC(=O)NCCCC[C@@H]1NC(=O)[C@H](CC(=O)O)NC(=O)[C@@H]2CCCN2C(=O)[C@H]([C@@H](C)CC)NC(=O)[C@@H]2CSSC[C@@H]3NC(=O)[C@H](C(C)C)NC(=O)[C@H](CC(C)C)NC(=O)[C@H](CC(N)=O)NC(=O)[C@@H]4CCCN4C(=O)[C@H](CCCNC(=N)N)NC(=O)[C@H](CSSC[C@H](NC(=O)[C@@H](N)CC(=O)O)C(=O)N[C@@H](CC(C)C)C(=O)NCC(=O)N[C@@H](CC)C(=O)N[C@@H](CC(C)C)C(=O)N[C@@H](CCCNC(=N)N)C(=O)N[C@@H](CCCCN)C(=O)N2)NC(=O)[C@H](CSSC[C@@H](C(=O)N[C@@H](CCCCN)C(=O)N[C@@H](Cc2ccc(O)cc2)C(=O)N[C@H](C(=O)N[C@@H](Cc2ccccc2)C(N)=O)C(C)C)NC(=O)[C@H](Cc2c[nH]c4ccccc24)NC(=O)[C@H](CCCNC(=N)N)NC(=O)[C@H](Cc2c[nH]cn2)NC(=O)[C@H]([C@@H](C)O)NC(=O)[C@H](CCCNC(=N)N)NC(=O)[C@H](CO)NC3=O)NC(=O)[C@H](CCCCN)NC(=O)[C@H](CC(=O)O)NC1=O (H-DCLG[Abu]LRKCIPDK(Pent4ynoyl)DKCCRPNLVCSRTHRWCKYVF-NH2; disulfide 2-17, 9-23, 16-30) | > 10000 | 2 |
| CC[C@H](C)[C@@H]1NC(=O)[C@@H]2CSSC[C@@H]3NC(=O)[C@H](C(C)C)NC(=O)[C@H](CC(C)C)NC(=O)[C@H](CC(N)=O)NC(=O)[C@@H]4CCCN4C(=O)[C@H](CCCNC(=N)N)NC(=O)[C@H](CSSC[C@H](NC(=O)[C@@H](N)CC(=O)O)C(=O)N[C@@H](CC(C)C)C(=O)NCC(=O)N[C@@H](C)C(=O)N[C@@H](CCSC)C(=O)N[C@@H](CCCNC(=N)N)C(=O)N[C@@H](CCCCN)C(=O)N2)NC(=O)[C@H](CSSC[C@@H](C(=O)N[C@@H](CCCCN)C(=O)N[C@@H](Cc2ccc(O)cc2)C(=O)N[C@H](C(=O)N[C@@H](Cc2ccccc2)C(N)=O)C(C)C)NC(=O)[C@H](Cc2c[nH]c4ccccc24)NC(=O)[C@H](Cc2ccc(NC(=N)N)cc2)NC(=O)[C@H](Cc2c[nH]cn2)NC(=O)[C@H]([C@@H](C)O)NC(=O)[C@H](CCCNC(=N)N)NC(=O)[C@H](CO)NC3=O)NC(=O)[C@H](CCCCN)NC(=O)[C@H](CC(=O)O)NC(=O)[C@H](CC(N)=O)NC(=O)[C@H](CC(=O)O)NC(=O)[C@@H]2CCCN2C1=O [[Ala5;Guf28]GpTx-1(1-34)] (H-DCLGAMRKCIPDNDKCCRPNLVCSRTH[Phe(4-guanidino)]WCKYVF-NH2; disulfide 2-17, 9-23, 16-30) | > 10000 | 5 |
